Biological target: Sterol 14alpha-demethylase (Mycobacterium tuberculosis, UniProt P9WPP9, F78L)

Compound: O=C(Nc1ccncc1)C(NS(=O)(=O)c1cccc2nsnc12)c1ccccc1 (stereo unspecified)
- Kd: 23.2 µM

Reference: ChEMBL document CHEMBL1138537, “Small-molecule scaffolds for CYP51 inhibitors identified by high-throughput screening and defined by X-ray crystallography” (Antimicrob Agents Chemother, 2007)
